Tests used:
Type in all cases: physicochemical
[1] = Stability test of everolimus in various mixed solvents (Reference Example 1); details: 1 mg/mL everolimus in ethanol/acetone mixed solvents, 25° C., up to 24 hours; when the ratio of ethanol is increased (FIG. 2)
Description: (§1) It is to be noted that, in the analysis using liquid chromatography (HPLC) in the present test examples, the measurement was carried out under the following conditions. • Measurement column: Zorbax Eclipse XDB-C18, Rapid resolution HT, 100 mm×4.6 mm, 1.8 μm • Detector: ultraviolet absorption spectrophotometer (measurement wavelength: 278 nm) • Column temperature: 45° C. • Mobile phase A: 0.1% formic acid; mobile phase B: methanol/acetonitrile=50/50
The stability test of everolimus in various mixed solvents was carried out. Various mixed solvents were each added to everolimus, and the prepared solutions each containing 1 mg/mL everolimus were then stored at 25° C.
The remaining amount of everolimus immediately after initiation of the storage test, and also 1 hour, 3 hours, 6 hours and 24 hours after initiation of the storage test was measured by high performance liquid chromatography (HPLC), and the peak area ratio of everolimus at each time point was then calculated. The ratio of solvents used for each sample is shown in Table 2, and the results obtained by measuring the remaining ratio of everolimus are shown in FIG. 2.

[2] = Stability test of everolimus with hypromellose in an ethanol solution (Reference Example 3); details: 10 mg everolimus with 150 mg hypromellose and 15 mg anhydrous lactose in 10 mL ethanol, 25° C.; immediately after the production (FIG. 4)
Description: as §1
The stability test of everolimus comprising a water-soluble polymeric carrier in an ethanol solution was carried out. 10 mL of ethanol was added to 150 mg of hypromellose (TC-5 E Type, manufactured by Shin-Etsu Chemical Co., Ltd.), and the obtained mixture was then stirred. To this mixture, 10 mg of everolimus was added, followed by stirring, and thereafter, 15 mg of anhydrous lactose was added to the reaction mixture, and the obtained mixture was further stirred. The thus prepared mixture was stored at 25° C.
The remaining amount of everolimus immediately after initiation of the storage test, and also 0.75 hours and 2 hours after initiation of the storage test was measured by high performance liquid chromatography (HPLC), and the peak area ratio of everolimus at each time point was then calculated.

[3] = Stability test of everolimus with hypromellose in ethanol:acetone (=9:1) (Reference Example 2); details: 10 mg everolimus with 150 mg hypromellose in 10 mL ethanol:acetone (=9:1), 25° C., up to 6 hours (FIG. 3)
Description: as §1
The stability test of everolimus comprising a water-soluble polymeric carrier in a mixed solution of ethanol and acetone (=9:1) was carried out. 10 mL of the mixed solution of ethanol and acetone (=9:1) was added to 150 mg of hypromellose (TC-5 E Type, manufactured by Shin-Etsu Chemical Co., Ltd.), and the obtained mixture was then stirred. To this mixture, 10 mg of everolimus was added, and the thus prepared mixture was then stored at 25° C.
The remaining amount of everolimus immediately after initiation of the storage test, and also 1 hour, 3 hours and 6 hours after initiation of the storage test was measured by high performance liquid chromatography (HPLC), and the peak area ratio of everolimus at each time point was then calculated.

CO[C@H]1C[C@@H]2CC[C@@H](C)[C@@](O)(O2)C(=O)C(=O)N2CCCC[C@H]2C(=O)O[C@H]([C@H](C)C[C@@H]2CC[C@@H](OCCO)[C@H](OC)C2)CC(=O)[C@H](C)/C=C(\C)[C@@H](O)[C@@H](OC)C(=O)[C@H](C)C[C@H](C)/C=C/C=C/C=C/1C [everolimus, 40-O-(2-hydroxyethyl)rapamycin]
purity of everolimus in solution (trend in words) [1]: decreased | remaining ratio of everolimus [2]: less than 96% | stability of everolimus in mixture (in words) [3]: improved
